The text below walks through data of article PMC12811658, “Design, Synthesis, and Structural Evolution of Pseudo‐Natural Product IDO1 Inhibitors and Degraders” (Angewandte Chemie (International Ed. in English), 2025).

One assay addresses T1, recombinant human IDO1 (Homo sapiens, UniProt P14902).
T1 construct: The GST-tag of IDO1 was removed to obtain untagged full-length IDO1l using PreScission protease; GST (N, cleaved yes); made in house; own inference
As to the kind of experiment: IDO1 enzymatic assay in vitro. The format is biochemical. The settings on record: for inhibition at 14 µM / IC50 / IDO1 activity IC50 [µM] (in vitro assay): pre-incubation 37 °C 45 min; for inhibition at 14 µM: mean ± SD; for IC50 / IDO1 activity IC50 [µM] (in vitro assay): determined if inhibition at 14 µM higher than 50%; for in vitro IDO1 inhibition (in words): up to 14 µM, incubated with IDO1 for 45 min.

Assay [1] relates to Kyn levels in BxPC3 cells (kynurenine generated by IDO1). As to the kind of experiment: Cellular Kyn assay (automated Kyn screening assay). Particulars: for IC50: Homo sapiens, BXPC-3, 48 h, IFN-γ, L-Trp and compounds 48 h, mean ± SD, read-out: IC50 (Kyn assay), reduction of kynurenine levels. The format is cell-based.
For assay [2], the target named is IDO1 protein levels in BxPC3 cells (Homo sapiens, UniProt P14902). As to the kind of experiment: IDO1 immunoblotting (degradation). Particulars: for Max. degradation (%): 24 h incubation, mean ± SD. The format is cell-based. Details: endogenous in cells; host or cells: BxPC3 (DSMZ), IFN-γ stimulated.
IDO1 protein levels in BxPC3 cells, sequence (P14902 whole entry): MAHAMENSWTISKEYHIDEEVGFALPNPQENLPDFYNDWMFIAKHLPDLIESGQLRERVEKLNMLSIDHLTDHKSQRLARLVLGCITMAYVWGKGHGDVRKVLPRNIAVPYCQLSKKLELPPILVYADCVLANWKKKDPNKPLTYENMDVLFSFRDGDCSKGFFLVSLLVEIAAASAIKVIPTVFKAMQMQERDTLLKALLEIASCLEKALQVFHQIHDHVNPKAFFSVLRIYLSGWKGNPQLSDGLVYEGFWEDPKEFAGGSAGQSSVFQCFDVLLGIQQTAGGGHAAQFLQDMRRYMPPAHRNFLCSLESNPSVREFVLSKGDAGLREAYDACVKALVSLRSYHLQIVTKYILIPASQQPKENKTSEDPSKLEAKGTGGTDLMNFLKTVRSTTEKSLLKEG

T1 sequence (P14902 whole entry): as above

As to `CC(C)(C)c1ccc(S(=O)(=O)N2C[C@H]3C[C@H]4C[C@H](C4(C)C)[C@@]3(COC(=O)Nc3ccc(I)cc3)C2)c(C2CC2)c1` [compound 81, ((3aS,4R,6R,7aS)-2-((4-(tert-butyl)-2-cyclopropylphenyl)sulfonyl)-5,5-dimethyloctahydro-3aH-4,6-methanoisoindol-3a-yl)methyl (4-iodophenyl)carbamate], on recombinant human IDO1, the inhibition (commonly the drop in the measured response relative to a control, in per cent) at 14 µM worked out at 39 ± 1%. Also, the IC50 (usually the concentration at which inhibition is half-maximal) on recombinant human IDO1 is above 14 µM; in assay [1] it was 19 ± 6 nM. Besides, the “in vitro IDO1 inhibition (in words)” value on recombinant human IDO1 is reported as “weak inhibitors”. Moreover, the results for the “Max. degradation (%)” value in assay [2] (10 nM) and in assay [2] (100 nM) were 31 ± 18 (3) % and 55 ± 4 (3) %, respectively.
Regarding `Cc1cc(C(C)(C)C(=O)O)ccc1S(=O)(=O)N1C[C@H]2C[C@H]3C[C@H](C3(C)C)[C@@]2(COC(=O)Nc2ccc(I)cc2)C1` [compound 97, 2-(4-(((3aS,4R,6R,7aS)-3a-((((4-iodophenyl)carbamoyl)oxy)methyl)-5,5-dimethyloctahydro-2H-4,6-methanoisoindol-2-yl)sulfonyl)-3-methylphenyl)-2-methylpropanoic acid], the inhibition at 14 µM at recombinant human IDO1 is 65 ± 4%. The results for the IC50 (on recombinant human IDO1; in assay [1]) were 0.11 ± 0.02 µM and 5 ± 1 nM, respectively. For the same molecule, the “Max. degradation (%)” value was 11 ± 24 (3) % in assay [2] (10 nM) and 18 ± 19 (3) % in assay [2] (100 nM).
Regarding `CC(C)(C)c1ccc(S(=O)(=O)N2C[C@H]3C[C@H]4C[C@H](C4(C)C)[C@@]3(COC(=O)Nc3ccc(I)cc3)C2)c(I)c1` [compound 84, ((3aS,4R,6R,7aS)-2-((4-(tert-butyl)-2-iodophenyl)sulfonyl)-5,5-dimethyloctahydro-3aH-4,6-methanoisoindol-3a-yl)methyl (4-iodophenyl)carbamate], the inhibition at 14 µM on recombinant human IDO1 was 16 ± 4%. Besides, the “IDO1 activity IC50 [µM] (in vitro assay)” value at recombinant human IDO1 was “– (Inactive: >75% Kyn level observed up to a concentration of 14 µM and no IC50 value obtained)”. Further, the IC50 in assay [1] came out at 42 ± 15 nM. The “Max. degradation (%)” value in assay [2] (10 nM) is “inactive”; in assay [2] (100 nM), 55 ± 5 (3) %.
With `C#Cc1ccc(NC(=O)OC[C@]23CN(S(=O)(=O)c4ccc(C(C)(C)C)cc4C4CC4)C[C@H]2C[C@H]2C[C@@H]3C2(C)C)cc1` [compound 100, ((3aS,4R,6R,7aS)-2-((4-(tert-butyl)-2-cyclopropylphenyl)sulfonyl)-5,5-dimethyloctahydro-3aH-4,6-methanoisoindol-3a-yl)methyl (4-ethynylphenyl)carbamate], on recombinant human IDO1, the inhibition at 14 µM was 39 ± 7%. Also, the concentration for half-maximal inhibition (IC50) is above 14 µM at recombinant human IDO1 and 10 ± 4 nM in assay [1]. Further, the “Max. degradation (%)” value in assay [2] (10 nM) is listed as 61 ± 2 (3) %; in assay [2] (100 nM) it was 71 ± 11 (3) %.
On to `Cc1cc(C(C)(C)C)ccc1S(=O)(=O)N1C[C@H]2C[C@H]3C[C@H](C3(C)C)[C@@]2(COC(=O)Nc2ccc(I)cc2)C1` [79 (iDeg-4), ((3aS,4R,6R,7aS)-2-((4-(tert-butyl)-2-methylphenyl)sulfonyl)-5,5-dimethyloctahydro-3aH-4,6-methanoisoindol-3a-yl)methyl (4-iodophenyl)carbamate], for which, at recombinant human IDO1, the inhibition at 14 µM worked out at 25 ± 5%, the half-inhibitory concentration (IC50) is above 14 µM and the “in vitro IDO1 inhibition (in words)” value is given as “weak inhibitors”. Moreover, the IC50 in assay [1] was 25 ± 5 nM. Further, in assay [2] (10 nM), the “Max. degradation (%)” value is reported as 31 ± 6 (3) %. Besides, the “Max. degradation (%)” value in assay [2] (100 nM) is listed as 65 ± 10 (14) %.
With `CC(C)(C)c1ccc(S(=O)(=O)N2C[C@H]3C[C@H]4C[C@H](C4(C)C)[C@@]3(COC(=O)Nc3ccc(I)cc3)C2)c(Br)c1` [compound 83, ((3aS,4R,6R,7aS)-2-((2-bromo-4-(tert-butyl)phenyl)sulfonyl)-5,5-dimethyloctahydro-3aH-4,6-methanoisoindol-3a-yl)methyl (4-iodophenyl)carbamate], on recombinant human IDO1, the inhibition at 14 µM is below 25%; the “IDO1 activity IC50 [µM] (in vitro assay)” value was “– (Inactive: >75% Kyn level observed up to a concentration of 14 µM and no IC50 value obtained)”. The IC50 in assay [1] was 35 ± 6 nM. Also, the “Max. degradation (%)” value in assay [2] (10 nM) is listed as 24 ± 15 (3) %. Further, the “Max. degradation (%)” value in assay [2] (100 nM) is on record as 56 ± 4 (3) %.
For `COc1cc(C(C)(C)C(=O)O)ccc1S(=O)(=O)N1C[C@H]2C[C@H]3C[C@H](C3(C)C)[C@@]2(COC(=O)Nc2ccc(I)cc2)C1` [compound 95, 2-(4-(((3aS,4R,6R,7aS)-3a-((((4-iodophenyl)carbamoyl)oxy)methyl)-5,5-dimethyloctahydro-2H-4,6-methanoisoindol-2-yl)sulfonyl)-3-methoxyphenyl)-2-methylpropanoic acid], on recombinant human IDO1, the inhibition at 14 µM is 57 ± 3%. Also, the IC50 at recombinant human IDO1 is 0.67 ± 0.1 µM; in assay [1] it was 80 ± 22 nM. Moreover, the “Max. degradation (%)” value in assay [2] (10 nM) and in assay [2] (100 nM) was “Inactive (5)” each time.
For `CCc1cc(C(C)(C)C)ccc1S(=O)(=O)N1C[C@H]2C[C@H]3C[C@H](C3(C)C)[C@@]2(COC(=O)Nc2ccc(I)cc2)C1` [compound 80, ((3aS,4R,6R,7aS)-2-((4-(tert-butyl)-2-ethylphenyl)sulfonyl)-5,5-dimethyloctahydro-3aH-4,6-methanoisoindol-3a-yl)methyl (4-iodophenyl)carbamate], the inhibition at 14 µM at recombinant human IDO1 was determined as 35 ± 8%. In addition, the IC50 was above 14 µM on recombinant human IDO1 and 13 ± 3 nM in assay [1]. In addition, the “in vitro IDO1 inhibition (in words)” value at recombinant human IDO1 is given as “weak inhibitors”. The figures for the “Max. degradation (%)” value in assay [2] (10 nM) and in assay [2] (100 nM) were 25 ± 10 (3) % and 56 ± 4 (3) %, respectively.
`CC(C)(C(=O)O)c1ccc(S(=O)(=O)N2C[C@H]3C[C@H]4C[C@H](C4(C)C)[C@@]3(COC(=O)Nc3ccc(I)cc3)C2)c(Cl)c1` [compound 96, 2-(3-chloro-4-(((3aS,4R,6R,7aS)-3a-((((4-iodophenyl)carbamoyl)oxy)methyl)-5,5-dimethyloctahydro-2H-4,6-methanoisoindol-2-yl)sulfonyl)phenyl)-2-methylpropanoic acid]: on recombinant human IDO1, the inhibition at 14 µM stood at 62 ± 1%. In addition, the values for the IC50 (on recombinant human IDO1; in assay [1]) were 0.19 ± 0.1 µM and 14 ± 3 nM, respectively. Moreover, the “Max. degradation (%)” value in assay [2] (10 nM) was 15 ± 2 (3) %; in assay [2] (100 nM) it was 20 ± 12 (3) %.
Regarding `COC(=O)C(C)(C)c1ccc(S(=O)(=O)N2C[C@H]3C[C@H]4C[C@H](C4(C)C)[C@@]3(COC(=O)Nc3ccc(I)cc3)C2)c(OC)c1` [compound 93, Methyl 2-(4-(((3aS,4R,6R,7aS)-3a-((((4-iodophenyl)carbamoyl)oxy)methyl)-5,5-dimethyloctahydro-2H-4,6-methanoisoindol-2-yl)sulfonyl)-3-methoxyphenyl)-2-methylpropanoate], at recombinant human IDO1, the inhibition at 14 µM was below 25%; the “IDO1 activity IC50 [µM] (in vitro assay)” value is “– (Inactive: >75% Kyn level observed up to a concentration of 14 µM and no IC50 value obtained)”. Further, the IC50 in assay [1] amounted to 73 ± 41 nM.
Take `CC(C)(C(=O)O)c1ccc(S(=O)(=O)N2C[C@H]3C[C@H]4C[C@H](C4(C)C)[C@@]3(COC(=O)Nc3ccc(I)cc3)C2)cc1` [92 (iDeg-5), 2-(4-(((3aS,4R,6R,7aS)-3a-((((4-iodophenyl)carbamoyl)oxy)methyl)-5,5-dimethyloctahydro-2H-4,6-methanoisoindol-2-yl)sulfonyl)phenyl)-2-methylpropanoic acid]: the inhibition at 14 µM on recombinant human IDO1 came out at 66 ± 8%. The IC50 on recombinant human IDO1 worked out at 0.82 ± 0.14 µM; in assay [1], 30 ± 3 nM. Further, in assay [1], the “fold increase in potency compared to iDeg-2 in Kyn assay” value was 4 fold. In addition, the “Max. degradation (%)” value in assay [2] (10 nM) was 23 ± 22 (5) %; in assay [2] (100 nM), 46 ± 21 (5) %. The Dmax – broadly, the largest share of the target that was removed – at 0.1 µM in assay [2] (BXPC-3, @100 nM, BxPC3 cells) lay within 36 to 54%.
For the molecule `COC(=O)C(C)(C)c1ccc(S(=O)(=O)N2C[C@H]3C[C@H]4C[C@H](C4(C)C)[C@@]3(COC(=O)Nc3ccc(I)cc3)C2)c(Cl)c1` [compound 94, Methyl 2-(3-chloro-4-(((3aS,4R,6R,7aS)-3a-((((4-iodophenyl)carbamoyl)oxy)methyl)-5,5-dimethyloctahydro-2H-4,6-methanoisoindol-2-yl)sulfonyl)phenyl)-2-methylpropanoate], on recombinant human IDO1, the inhibition at 14 µM was below 25%; the “IDO1 activity IC50 [µM] (in vitro assay)” value is “– (Inactive: >75% Kyn level observed up to a concentration of 14 µM and no IC50 value obtained)”. The IC50 in assay [1] was 43 ± 24 nM.
On to `COc1cc(C(C)(C)C)ccc1S(=O)(=O)N1C[C@H]2C[C@H]3C[C@H](C3(C)C)[C@@]2(COC(=O)Nc2ccc(I)cc2)C1` [compound 82, ((3aS,4R,6R,7aS)-2-((4-(tert-butyl)-2-methoxyphenyl)sulfonyl)-5,5-dimethyloctahydro-3aH-4,6-methanoisoindol-3a-yl)methyl (4-iodophenyl)carbamate], for which the inhibition at 14 µM on recombinant human IDO1 was below 25%. Besides, the “IDO1 activity IC50 [µM] (in vitro assay)” value at recombinant human IDO1 is “– (Inactive: >75% Kyn level observed up to a concentration of 14 µM and no IC50 value obtained)”. In assay [1], the IC50 worked out at 46 ± 15 nM. In addition, the “Max. degradation (%)” value in assay [2] (10 nM) was 14 ± 15 (5) %; in assay [2] (100 nM), 59 ± 16 (5) %.
As to `Cc1ccc(NC(=O)OC[C@]23CN(S(=O)(=O)c4ccccc4Br)C[C@H]2C[C@H]2C[C@@H]3C2(C)C)cc1` [compound 59, ((3aS,4R,6R,7aS)-2-((2-bromophenyl)sulfonyl)-5,5-dimethyloctahydro-3aH-4,6-methanoisoindol-3a-yl)methyl p-tolylcarbamate], the IC50 in assay [1] amounted to 6200 ± 1700 nM.
As to `CC(C)(C)c1ccc(S(=O)(=O)N2CC3CCCCC3(COC(=O)Nc3ccc(I)cc3)C2)cc1` (centres unmarked) [compound 25, (2-((4-(tert-butyl)phenyl)sulfonyl)octahydro-3aH-isoindol-3a-yl) methyl (4-iodophenyl) carbamate], the “activity in cellular Kyn assay (in words)” value in assay [1] was “inactive”.
